Reference: US20200017495A1, “NOVEL HETEROCYCLIC COMPOUNDS AND THEIR USE IN PREVENTING OR TREATING BACTERIAL INFECTIONS” (priority 2017, published 2020)

Test system: Klebsiella pneumoniae (KPN) isolates
Assay: MIC of compounds alone and combined with antibacterials, broth microdilution (CLSI)
Format: cell-based
Procedure, shortened: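 Log-phase isolates were inoculated at a final 5.10^5 CFU/mL in cation-adjusted Mueller-Hinton broth and incubated 16-20 h at 35° C in ambient air. MIC was the lowest concentration preventing visible growth; for combinations, the antibacterial MIC was read at each compound concentration.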

C=CC1=C(C(=O)O)N2C(=O)[C@@H](NC(=O)/C(=N\OCC(=O)O)c3csc(N)n3)[C@H]2SC1 [FIX, Cefixime]
<0.25 µg/mL: MIC ATB in combination (strain KPN UFR162, with AF3 @ 8 μg/mL) | MIC ATB in combination (strain KPN UFR163, with AF3 @ 8 μg/mL) | MIC ATB in combination (strain KPN UFR170, with AF2 @ 8 μg/mL) | MIC ATB in combination (strain KPN UFR171, with AF2 @ 8 μg/mL) | MIC ATB in combination (strain KPN UFR171, with AF3 @ 8 μg/mL) | MIC ATB in combination (strain KPN UFR172, with AF2 @ 8 μg/mL) | MIC ATB in combination (strain KPN UFR172, with AF3 @ 8 μg/mL)
128 µg/mL: MIC (strain KPN UFR77, genotype CMY-2)
64 µg/mL: MIC ATB in combination (strain KPN UFR165, with AF2 @ 8 μg/mL) | MIC (strain KPN UFR221, genotype TEM-1, SHV-11, CTX-M-14, DHA-1)
>128 µg/mL: MIC (strain KPN UFR76, genotype TEM-155, SHV-11, ACT-1, OXA-2) | MIC (strain KPN UFR78, genotype TEM-1, SHV-1, CTX-M-15, CMY-2, OXA-1, OXA-48) | MIC (strain KPN UFR79, genotype DHA-1, OXA-1) | MIC (strain KPN UFR81, genotype TEM-1, SHV-1, DHA-1, OXA-48) | MIC (strain KPN UFR162, genotype SHV-28, TEM-1, CTX-M-15, OXA-181, OXA-181, NDM-1, antibiotic alone) | MIC ATB in combination (strain KPN UFR162, with AF2 @ 8 μg/mL) | MIC ATB in combination (strain KPN UFR162, with CLA @ 4 μg/mL) | MIC (strain KPN UFR163, genotype TEM-1, SHV-1, CTX-M-15, OXA-232, OXA-9, NDM-1, qnrB1, qepA, RmtB, antibiotic alone) | MIC ATB in combination (strain KPN UFR163, with AF2 @ 8 μg/mL) | MIC ATB in combination (strain KPN UFR163, with CLA @ 4 μg/mL) | MIC (strain KPN UFR164, genotype SHV-11, CTX-M-15, OXA-1, OXA-181, NDM-1, antibiotic alone) | MIC ATB in combination (strain KPN UFR164, with AF2 @ 8 μg/mL) | MIC ATB in combination (strain KPN UFR164, with AF3 @ 8 μg/mL) | MIC ATB in combination (strain KPN UFR164, with CLA @ 4 μg/mL) | MIC (strain KPN UFR165, genotype TEM-1, SHV-11, CTX-M-15, OXA-1, OXA-181, NDM-1, antibiotic alone) | MIC ATB in combination (strain KPN UFR165, with AF3 @ 8 μg/mL) | MIC ATB in combination (strain KPN UFR165, with CLA @ 4 μg/mL) | MIC (strain KPN UFR166, genotype TEM-1, TEM-1, CTX-M-15, OXA-181, OXA-9, NDM-1, antibiotic alone) | MIC ATB in combination (strain KPN UFR166, with AF2 @ 8 μg/mL) | MIC ATB in combination (strain KPN UFR166, with AF3 @ 8 μg/mL) | MIC ATB in combination (strain KPN UFR166, with CLA @ 4 μg/mL) | MIC (strain KPN UFR167, genotype TEM-1, SHV-12, CTX-M-15, OXA-9, NDM-1, antibiotic alone) | MIC ATB in combination (strain KPN UFR167, with AF2 @ 8 μg/mL) | MIC ATB in combination (strain KPN UFR167, with AF3 @ 8 μg/mL) | MIC ATB in combination (strain KPN UFR167, with CLA @ 4 μg/mL) | MIC (strain KPN UFR168, genotype SHV-2, CTX-M-15, OXA-1, OXA-181, NDM-1, ArmA, antibiotic alone) | MIC ATB in combination (strain KPN UFR168, with AF2 @ 8 μg/mL) | MIC ATB in combination (strain KPN UFR168, with AF3 @ 8 μg/mL) | MIC ATB in combination (strain KPN UFR168, with CLA @ 4 μg/mL) | MIC (strain KPN UFR169, genotype TEM-1, SHV-28, CTX-M-15, CMY-4, OXA-1, NDM-1, antibiotic alone) | MIC ATB in combination (strain KPN UFR169, with AF2 @ 8 μg/mL) | MIC ATB in combination (strain KPN UFR169, with AF3 @ 8 μg/mL) | MIC ATB in combination (strain KPN UFR169, with CLA @ 4 μg/mL) | MIC (strain KPN UFR170, genotype TEM-1, SHV-28, CTX-M-15, CMY-6, OXA-1, OXA-9, NDM-1, antibiotic alone) | MIC ATB in combination (strain KPN UFR170, with AF3 @ 8 μg/mL) | MIC ATB in combination (strain KPN UFR170, with CLA @ 4 μg/mL) | MIC (strain KPN UFR171, genotype TEM-1, SHV-28, CTX-M-15, OXA-1, OXA-10, NDM-1, RmtA, antibiotic alone) | MIC ATB in combination (strain KPN UFR171, with CLA @ 4 μg/mL) | MIC (strain KPN UFR172, genotype SHV-38, CMY-16, OXA-10, NDM-1, antibiotic alone) | MIC ATB in combination (strain KPN UFR172, with CLA @ 4 μg/mL) | MIC (strain KPN UFR215, genotype SHV-27, CTX-M-15) | MIC (strain KPN UFR216, genotype SHV-28, CTX-M-15) | MIC (strain KPN UFR217, genotype TEM-1, SHV-1, CTX-M-15) | MIC (strain KPN UFR219, genotype SHV-12, CTX-M-15) | MIC (strain KPN UFR220, genotype TEM-1, SHV-12, DHA-1) | MIC (strain KPN UFR222, genotype DHA-2) | MIC (strain KPN UFR227O, genotype TEM-x, SHV-x, CTX-M-x) | MIC (strain KPN UFR229O, genotype SHV-12, VIM-1, antibiotic alone) | MIC ATB in combination (strain KPN UFR229O, with AF2 @ 8 μg/mL) | MIC ATB in combination (strain KPN UFR229O, with AF3 @ 8 μg/mL) | MIC ATB in combination (strain KPN UFR229O, with CLA @ 4 μg/mL)
<=0.25 μg/mL: MIC (strain KPN UFR80, genotype SHV-11, DHA-1, OXA-1)
